This note sets out measurements from PubChem BioAssay (NCI).

Experiment in all cases: NCI tumour cell line growth inhibition, 48 h
The subject of assay [1] is DMS 273 small cell lung.
Assay [2] deals with OVCAR-3 ovarian.
The test system of assay [3] is HOP-62 NSCLC.
The subject of assay [4] is SNB-78 CNS.
Assay [5] deals with DLD-1 colon.
Assay [6] has as its system A498 renal.
In assay [7] the test system is MCF7 breast.
Assay [8] concerns OVCAR-5 ovarian.
Assay [9] concerns XF 498 CNS.
Assay [10] deals with EKVX NSCLC.
Assay [11] concerns HCT-15 colon.
Assay [12] deals with T-47D breast.
In assay [13] the test system is MDA-N.

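Where inhibition never reached the appropriate level, the endpoint shown equals the highest concentration tested. Otherwise, values were interpolated linearly from a five-concentration, 48-hour dose response in 96-well plates. TGI: total growth inhibition.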

Regarding `O=C1C(CO)=C[C@H](O)[C@H]2O[C@@H]12`, the TGI in assay [1] was 485 µM; in assay [2] it was 406 µM; in assay [3] it was greater than 612 µM; in assay [4], 480 µM; in assay [5] it was 227 µM; in [6] it was 519 µM. The TGI came out at 271 µM in assay [7]; 346 µM in assay [8]; 359 µM in [9]; 215 µM in assay [10]; 278 µM in assay [11].

With `c1ccc2c(c1)NCc1cc3ccccc3nc1O2`, the TGI in [1], in assay [2], in assay [3], in assay [4], in [5] and in assay [6] was greater than 100 µM in each case. Besides, the TGI in assay [7], in assay [8], in assay [9], in assay [10] and in assay [11] was greater than 100 µM in each case.

As to `C/C(=N\NC(=S)N1CCC(N2CCCCC2)CC1)c1ccccn1`, the TGI in [12] is 7.01 µM; in assay [1] it was 9.43 µM; in assay [2], 13.4 µM; in assay [3] it was greater than 19.8 µM; in assay [13] it was 5.9 µM; in assay [4], 27.5 µM. Also, the TGI in [5] was greater than 100 µM; in assay [6] it was 5.21 µM; in [7], 10.6 µM; in assay [8], 10.2 µM; in [9] it was 19.6 µM; in assay [10], 12.1 µM. Further, the TGI in assay [11] is 6.13 µM.

Take `N#CCCN(CCC#N)c1ccc(/C=C2\N=C(c3ccccc3)N(c3ccc(C(=O)O)cc3)C2=O)cc1`: the TGI in assay [12], in assay [2], in assay [3], in assay [13], in assay [6] and in [7] was greater than 100 µM in each case. The TGI in assay [8], in assay [10] and in [11] was greater than 100 µM in each case.

As to `O=[N+]([O-])C(/C(Cl)=C(\Cl)Br)=C(/Cl)SCc1ccccc1`, the TGI in assay [12] came to 10.9 µM; in [2], 8.83 µM; in [3], 37.5 µM; in assay [13] it was 4.09 µM; in assay [6], 21.2 µM; in assay [7], 11.2 µM. Further, the results for the TGI in [8], in assay [10] and in assay [11] were 26.2 µM, 14.5 µM and 8.53 µM, respectively.

Take `CC(C)=NOC(=O)CNC(=O)C(Cc1ccccc1)NC(=O)C(C)NC(=O)OC(C)(C)C` (configuration not stated): the TGI in [12], in [2], in assay [3], in assay [13], in [6] and in [7] was greater than 100 µM each time. Further, the TGI in assay [8], in [10] and in assay [11] was greater than 100 µM in each case.
